Reference: PubChem BioAssay AID1996
≈ marks a conversion by molar mass, not a printed value.

Details: buffer; pH 7.4; 200.0 µM

Structure (SMILES) | solubility kinetic [µg/mL]
CCCN(CC(=O)Nc1ccccc1C)C(=O)c1cc(C)oc1C | > 49.3
NNC(=O)c1oc2ccccc2c1-n1cccc1 | > 36.2
Cc1ccc(CC(=O)N2CCN(C(=O)C3CCCO3)CC2)cc1 (stereo unspecified) | 43.2 (≈ 137 µM)
Br.Fc1ccccc1CNCc1ccc2c(c1)OCO2 | > 51
CCC(=O)Nc1cc(C(F)(F)F)ccc1N1CCCC1 | 34 (≈ 119 µM)
O=C(O)/C=C/C(=O)NC1CCCCCCCCCCC1 | > 42.2
CCOC(=O)CSc1nc(C)c2cc(C)c(C)cc2n1 | 6 (≈ 20.7 µM)
O=C(COc1cccc(F)c1)Nc1nc(-c2ccncc2)cs1 | 5 (≈ 15.2 µM)
CC(=O)Nc1ccc(S(=O)(=O)NCc2ccncc2)cc1 | > 45.8
CN1CCCN(C(=O)c2ccc(Cl)s2)CC1 | > 38.8
CCCCc1ccc(NC(=O)Nc2cnccn2)cc1 | 1.1 (≈ 4.07 µM)
Cc1ccc2sc(=O)[nH]c2c1 | 19.4 (≈ 117 µM)
CCCN1C(=O)C2(OCCO2)c2cc(Cl)ccc21 | > 40.2
CC1CCCC(C)N1C(=O)COC(=O)CN1C(=O)c2ccccc2C1=O (stereo unspecified) | > 53.8
N#C/C(=C\c1ccccc1)C(=O)N1CCN(c2ccccc2F)CC1 | 20.4 (≈ 60.8 µM)
Nc1nc(-c2ccccc2)c(-c2ccccc2)o1 | > 35.4
Cc1cc(N)ccc1NC(=O)CN1CCCC1 | 23.1 (≈ 99 µM)
CN(C)c1cccc(C(=O)OCC(=O)N(C)c2ccccc2)c1 | > 46.9
CC(C)CCN1CCN(C2CSCCSC2)CC1CCO (stereo unspecified) | > 49.9
CNC(=S)NC12CC3CC(CC(C3)C1)C2 | 3.8 (≈ 16.9 µM)
Cn1c(OCc2cccnc2)nc2c1c(=O)n(Cc1ccc(F)cc1)c(=O)n2C | 7.7 (≈ 19.5 µM)
O=C(NCCc1ccc(Cl)cc1)C1COc2ccccc2O1 (stereo unspecified) | 5.5 (≈ 17.3 µM)
CCOc1cc2c(cc1/C=C1/NC(=O)N(CC(=O)OC)C1=O)OCO2 | 2.9 (≈ 8.33 µM)
O=C(COC(=O)c1cc(Cl)nc(Cl)c1)NCCc1ccc(F)cc1 | > 55.7
NS(=O)(=O)c1cccc(NC(=O)CSc2nnc(C3CC3)n2-c2ccccc2)c1 | > 64.4

Structure (SMILES) | solubility kinetic [µg/mL]
O=C(CN1C(=O)CNC1=O)Nc1cc(Cl)cc(Cl)c1 | > 45.3
N#C/C(=C(\O)c1cc(Cl)sc1Cl)c1nc2ccccc2[nH]1 | < 0.2
O=C1CN(C(=O)COC(=O)CCC(=O)c2ccc(F)cc2)c2ccccc2N1 | 31.6 (≈ 82.2 µM)
CC1CCCC(NC(=O)c2ccc3c(c2)NC(=O)CS3)C1C (stereo unspecified) | 5.3 (≈ 16.6 µM)
Cc1ccc(S(=O)(=O)NC(=O)c2cccc(C)c2)cc1 | > 43.4
Cc1csc(NC(=O)COc2ccc3c(c2)CCC3)n1 | 6.9 (≈ 23.9 µM)
COc1ccc(-c2c(C#N)sc(C(N)=O)c2-c2ccc(OC)cc2)cc1 | < 0.4
COc1ccc(CNC(=S)NCc2ccc(Cl)cc2)cc1OC | 35 (≈ 99.8 µM)
Cc1cccc(N=C2NC(=O)/C(=C/c3cccnc3)S2)c1 | 2.7 (≈ 9.14 µM)
COC(=O)c1ccc(NC(=O)C2CCCN(S(C)(=O)=O)C2)cc1 (stereo unspecified) | 31.8 (≈ 93.4 µM)
CN(C)c1ccc(CNc2ccccn2)cc1 | 22.3 (≈ 98.1 µM)
CCOC(=O)c1cccc(NC(=O)N2CCOCC2)c1 | > 41.7
O=C(COC(=O)COc1ccccc1[N+](=O)[O-])NCc1ccc2c(c1)OCO2 | > 58.2
O=C1CCCN1C(=O)CSc1ncnc2sccc12 | > 44
Cc1ccc(NC(=O)C2CCCN(c3cnccn3)C2)c(C)c1 (stereo unspecified) | > 46.6
C/C(=N\O)c1ccc2c(c1)OCCO2 | > 29
O=C(Nc1ccccc1Cl)c1cc(=O)c2ccccc2o1 | 0.7 (≈ 2.34 µM)
S=C(Nc1ccc(Cl)cc1)NC1CCCCC1 | 4.4 (≈ 16.4 µM)
O=C(NC(=S)NNC(=O)c1ccco1)c1ccc(F)cc1 | > 46.1
Cl.Clc1cccc(Cl)c1CSc1nnc([C@@H]2CCCN2)o1 | > 55
CC(=O)Nc1ccc(NC(=O)C(C)OC(=O)C23CC4CC(CC(Cl)(C4)C2)C3)cc1 (stereo unspecified) | 61.5 (≈ 147 µM)
CCN1CCN(CC(c2ccccc2)c2ccccc2)CC1 | 29.1 (≈ 98.8 µM)
CC1CCCC(C)N1C(=O)COC(=O)c1ccc([N+](=O)[O-])o1 (stereo unspecified) | > 46.5
C[C@](N)(Cc1ccc(O)c(O)c1)C(=O)O | > 31.7
O=C(Nc1nccs1)c1ccc(COc2ccccc2)o1 | < 0.3

Structure (SMILES) | solubility kinetic [µg/mL]
O=C1NC2=C(C(=O)CCC2)C(c2ccc([N+](=O)[O-])cc2)N1 (stereo unspecified) | > 43.1
CCOC(=O)c1c(C)nc(C(Cl)(Cl)Cl)nc1N | 21.7 (≈ 72.7 µM)
Cc1ccc(C(=O)Cn2cc([N+](=O)[O-])nc2C)cc1 | 11.7 (≈ 45.1 µM)
CCN(CC)CC(=O)Nn1c(C)nc2c(ncn2-c2ccccc2)c1=O | > 53.2
CNc1nc(SC)nc2ccccc12 | > 30.8
CCN(CC(=O)NCc1ccc(Cl)cc1)C(=O)c1sccc1C | > 52.6
CC(=O)Nc1ccc(C(=O)Nc2ccncc2)cc1 | 31.6 (≈ 124 µM)
COc1ccc(Cl)cc1NC(=O)/C=C/C(=O)O | > 38.3
CN(CC(=O)Nc1cccc(F)c1)C(=O)COc1ccc2c(c1)CCC2 | 1.9 (≈ 5.33 µM)
OC1CCN(Cc2cccc3ccccc23)CC1 | 29.3 (≈ 121 µM)
O=C(NCc1ccc2c(c1)OCO2)c1ccc(Cl)nc1 | > 43.6
Cc1cc(Br)ccc1NC(=S)N1CCOCC1 | > 47.3
O=C(CCNC(=O)c1ccccc1Cl)Nc1nc2ccccc2[nH]1 | 4.9 (≈ 14.3 µM)
O=C(CCc1ccccc1)NCCc1nc2ccccc2[nH]1 | > 44
CCNC(=O)CC1C(=O)N(CC)C(=S)N1NC(=O)c1ccccc1 (stereo unspecified) | > 52.3
COc1ccc(C(=O)CC(=O)C(=O)Nc2cc(C)ccc2C)cc1 | 11.2 (≈ 34.4 µM)
Cc1cc(C(c2cc(C)c(N)c(C)c2)c2ccco2)cc(C)c1N | 23.9 (≈ 74.6 µM)
Cc1ccc(NC(=S)N(CCN(C)C)C(C)c2cccnc2)cc1 (stereo unspecified) | > 51.4
O=C(O)CNC(=S)N(Cc1ccccc1Cl)C1CCCC1 | > 49
NC(=O)c1ccsc1NC(=O)COC(=O)/C=C/c1ccccc1[N+](=O)[O-] | 4.3 (≈ 11.5 µM)
Cc1ccc(SCC(=O)OCC(=O)NC2CCCCCC2)cc1 | > 50.3
Cc1cc(C(=O)Nc2ccc(C#N)cc2)on1 | 10.3 (≈ 45.3 µM)
CCN(CC(=O)N1CCCCCC1)S(=O)(=O)c1ccc(C)cc1 | > 50.8
Cc1noc(C)c1NC(=O)NC(c1ccccc1)c1ccccc1 | 10.2 (≈ 31.7 µM)
COc1ccc(NS(=O)(=O)c2csc(C(N)=O)c2)cc1 | > 46.9

Structure (SMILES) | solubility kinetic [µg/mL]
CCOP(=O)(c1ccccc1)C1(C#N)CC1 (stereo unspecified) | 23 (≈ 97.8 µM)
COc1ccc(-c2cc(C(=O)NC3CCCC3)c3ccccc3n2)cc1OC | 1.6 (≈ 4.25 µM)
Cc1ccc(C(=O)O/N=C/c2ccc(N(C)C)cc2)cc1 | 2.4 (≈ 8.5 µM)
Cc1ccc(NC(=O)N(CCC#N)Cc2ccccc2)cc1 | > 44
Cc1ccc(OS(=O)(=O)c2ccc(N3C(=O)CCC3=O)cc2)cc1 | 18.3 (≈ 53 µM)
O=C(Nc1ccc2c(c1)OCCO2)c1cc(F)c(F)cc1Cl | 2.8 (≈ 8.6 µM)
CC(=O)Nc1ccc2nsnc2c1 | > 29
Cc1cccc(C)c1NC(=O)CC(C)c1ccccc1 (stereo unspecified) | 12.8 (≈ 47.9 µM)
CC1CCCCN1CC(O)c1c[nH]c2ccccc12 (stereo unspecified) | > 38.8
Cc1ccc(C)n1CCN1CCN(C(=O)CC#N)CC1 | > 41.2
CCN1C(C#N)=C(C#N)N=C(C)CC1(C)C | 29.8 (≈ 138 µM)
O=C(NC1CC(=O)N(c2ccccc2)C1)C1CC1 (stereo unspecified) | > 36.6
COc1ccc(Nc2ccc(C(N)=O)cc2[N+](=O)[O-])cc1 | 14.3 (≈ 49.8 µM)
CCN1CCN(C(=O)c2[nH]c3ccc(OC)cc3c2C)CC1 | > 45.2
CC(Sc1ncccn1)C(=O)N1CCc2ccccc21 (stereo unspecified) | 33.3 (≈ 117 µM)
COc1ccc(NC(=O)C2=C(C)NC(=O)NC2c2ccccc2[N+](=O)[O-])cc1 (stereo unspecified) | 57.1 (≈ 149 µM)
CCCC(=O)NC(=S)Nc1cc(-c2nc3ncccc3o2)ccc1C | 0.5 (≈ 1.41 µM)
Cc1ccccc1CN(C)C(=O)c1ccc2ccccc2n1 | > 43.6
Cc1csc(NC(=O)CS(=O)(=O)c2ccccc2)n1 | 44.3 (≈ 149 µM)
O=C(NCC1CCCO1)c1cc(-c2ccc(F)cc2)no1 (stereo unspecified) | > 43.5
CC1CCN(C(=O)c2cc3c(ccc4ccccc43)o2)CC1 | < 0.6
CC(Oc1ccc(F)cc1)C(=O)N1CCN(c2ncccn2)CC1 (stereo unspecified) | > 49.6
CC(C)C(NC(=O)c1ccc(F)cc1)C(=O)N1CCC1 (stereo unspecified) | > 41.7
COc1ccc(-n2c(=S)[nH]c(=O)c3cccnc32)cc1 | 11 (≈ 38.6 µM)
N/C(=N\OC(=O)c1ccc2c(c1)OCO2)c1ccncc1 | > 42.8

Structure (SMILES) | solubility kinetic [µg/mL]
O=c1[nH]c(O)c(C=Nc2ccccc2Oc2ccccc2)c(=O)[nH]1 | 0.8 (≈ 2.47 µM)
COc1cccc(S(=O)(=O)N2CCN(C(=O)c3ccco3)CC2)c1 | 51.3 (≈ 146 µM)
Cc1ccc(C(C)C)c(OC/C(O)=C(\C#N)c2nc3ccccc3[nH]2)c1 | < 0.2
Nc1ccc(S(=O)(=O)NC2=NCCCCC2)cc1 | > 40.1
CN1CCN(c2oc(/C=C/c3ccccc3)nc2C#N)CC1 | 40.3 (≈ 137 µM)
Cc1ccc(S(=O)(=O)Nc2ccc(F)cc2)cc1C(=O)N1CCOCC1 | > 56.8
CCOc1ccc(C(CC(=O)O)NC(=O)Cc2ccc(Cl)cc2)cc1 (stereo unspecified) | > 54.3
CS(=O)(=O)N(CC(=O)N1CCCCCC1)c1cccc([N+](=O)[O-])c1 | > 53.3
CC(NC(=O)c1cccs1)C1CCCO1 (stereo unspecified) | > 33.8
O=C(O)COCC(=O)NC1CCN(Cc2ccccc2)CC1 | > 46
COc1cc(/C=C/C(=O)OCC(=O)NC(C)c2ccccc2)cc(OC)c1OC (stereo unspecified) | 54.9 (≈ 137 µM)
CN(C)C(=S)c1ccc(N(C)C)cc1 | 28.2 (≈ 135 µM)
COc1cccc(CNc2ccc(C(=O)O)cc2)c1OCc1ccccc1 | > 54.5
O=C(NCc1ccccn1)Nc1ccc(Cl)cc1Cl | 9.2 (≈ 31.1 µM)
Oc1ccc2ccccc2c1C=NC12CN3CCN(CN(C3)C1)C2 | 46.5 (≈ 144 µM)
COc1ccc(Oc2nc3c(c(=O)n(C)c(=O)n3C)n2C)cc1 | > 47.4
O=C(CNC(=O)c1ccco1)OCC(=O)c1ccc([N+](=O)[O-])cc1 | > 49.8
COc1ccc(CCNC(=O)COC(=O)C2CC2C)cc1 (stereo unspecified) | > 43.7
COc1cc(OC)c(OC)cc1CNCCNC(=O)c1ccco1 | 44.5 (≈ 133 µM)
O=C(/C=C/c1ccccc1)NCCc1nc2ccccc2[nH]1 | 23.7 (≈ 81.3 µM)
Cc1cccc(CC2S/C(=N/c3cccc(C)n3)NC2=O)c1 (stereo unspecified) | 0.7 (≈ 2.25 µM)
